Laboratory results from the CheMixHub viscosity set.

Assay: xn = mol fraction of the nth substance listed

CC(C)CC(C)(C)C + C1CCCCC1
viscosity [mPa·s]
Settings	298.15 K	303.15 K	308.15 K	313.15 K	318.15 K	323.15 K
101 kPa, x2 = 0.1052	–	0.4666	–	–	–	–
101 kPa, x2 = 0.1988	–	0.4842	–	–	–	–
101 kPa, x2 = 0.3026	–	0.505	–	–	–	–
101 kPa, x2 = 0.4095	–	0.5328	–	–	–	–
101 kPa, x2 = 0.5008	–	0.5579	–	–	–	–
101 kPa, x2 = 0.6005	–	0.5947	–	–	–	–
101 kPa, x2 = 0.7002	–	0.6379	–	–	–	–
101 kPa, x2 = 0.8014	–	0.6902	–	–	–	–
101.33 kPa, x1 = 0.035	0.8617	0.7932	0.7312	0.6779	0.6323	0.5887
101.33 kPa, x1 = 0.0662	0.8283	0.7645	0.7054	0.6567	0.6115	0.5733
101.33 kPa, x1 = 0.1012	0.8041	0.741	0.6844	0.6377	0.5952	0.5565
101.33 kPa, x1 = 0.1376	0.7806	0.718	0.6639	0.6192	0.5793	0.5402
101.33 kPa, x1 = 0.1754	0.7572	0.6953	0.6438	0.6	0.5628	0.5235
101.33 kPa, x1 = 0.2147	0.7344	0.6732	0.6242	0.5813	0.5467	–
101.33 kPa, x1 = 0.2557	0.7147	0.6528	0.6066	0.5646	0.5318	–
101.33 kPa, x1 = 0.2984	0.6954	0.633	0.5895	0.5483	0.5172	–
101.33 kPa, x1 = 0.343	0.6717	0.6129	0.5717	0.5322	0.5024	–
101.33 kPa, x1 = 0.3895	0.6484	0.5933	0.5545	0.5166	0.488	–
101.33 kPa, x1 = 0.4382	0.6219	0.5768	0.539	0.5029	0.4762	–
101.33 kPa, x1 = 0.4891	0.5959	0.5607	0.524	0.4895	0.4647	–
101.33 kPa, x1 = 0.5423	0.5752	0.5454	0.5098	0.4781	0.4527	–
101.33 kPa, x1 = 0.5982	0.5549	0.5306	0.496	0.4671	0.4411	–
101.33 kPa, x1 = 0.6569	0.5406	0.5132	0.4812	0.4546	0.4305	–
101.33 kPa, x1 = 0.7185	0.5267	0.4963	0.4668	0.4424	0.4203	–
101.33 kPa, x1 = 0.7834	0.5135	0.4848	0.457	0.4315	0.4106	–
101.33 kPa, x1 = 0.8517	0.5006	0.4737	0.4475	0.421	0.4013	–
101.33 kPa, x1 = 0.9238	0.4888	0.4625	0.4368	0.4131	0.3929	–
